Measured values taken from ChEMBL document CHEMBL3244338, “Antineoplastic agents. Structure-activity relationship study of bis(substituted aminoalkylamino)anthraquinones” (J Med Chem, 1978).
Activity calls are given as the source filed them. The rule behind the calls is not given here.

Legend:
P388 [1] = experiment: Antitumor activity against mouse P388 cells allografted in BDF1 mouse assessed as increase in survival time at 100 mg/kg administered 24 hrs post challenge relative to control; assay type: functional
Mus musculus [2] = experiment: Toxicity in mouse P388 cells allografted BDF1 mouse assessed as body weight difference at 100 mg/kg administered 24 hrs post challenge relative to control; assay type: organism-based; parameters: dose 100 mg/kg; conditions: in vivo
Mus musculus [3] = experiment: Toxicity in mouse P388 cells allografted BDF1 mouse assessed as body weight difference at 200 mg/kg administered 24 hrs post challenge relative to control; assay type: organism-based; parameters: dose 200 mg/kg; conditions: in vivo
P388 [4] = experiment: Antitumor activity against mouse P388 cells allografted in BDF1 mouse assessed as mouse survival at 400 mg/kg administered 24 hrs post challenge relative to control; assay type: functional, organism-based; parameters: dose 400 mg/kg
P388 [5] = experiment: Antitumor activity against mouse P388 cells allografted in BDF1 mouse assessed as mouse survival at 200 mg/kg administered 24 hrs post challenge relative to control; assay type: functional, organism-based; parameters: dose 200 mg/kg
Mus musculus [6] = experiment: Toxicity in mouse P388 cells allografted BDF1 mouse assessed as body weight difference at 400 mg/kg administered 24 hrs post challenge relative to control; assay type: organism-based; parameters: dose 400 mg/kg; conditions: in vivo
P388 [7] = experiment: Antitumor activity against mouse P388 cells allografted in BDF1 mouse assessed as mouse survival at 100 mg/kg administered 24 hrs post challenge relative to control; assay type: functional, organism-based; parameters: dose 100 mg/kg
P388 [8] = experiment: Antitumor activity against mouse P388 cells allografted in BDF1 mouse assessed as increase in survival time at 400 mg/kg administered 24 hrs post challenge relative to control; assay type: functional
P388 [9] = experiment: Antitumor activity against mouse P388 cells allografted in BDF1 mouse assessed as increase in survival time at 200 mg/kg administered 24 hrs post challenge relative to control; assay type: functional
P388 [10] = experiment: Antitumor activity against mouse P388 cells allografted in BDF1 mouse assessed as mouse survival at 6.25 mg/kg administered 24 hrs post challenge relative to control; assay type: functional, organism-based; parameters: dose 6.25 mg/kg
Mus musculus [11] = experiment: Toxicity in mouse P388 cells allografted BDF1 mouse assessed as body weight difference at 0.78 mg/kg administered 24 hrs post challenge relative to control; assay type: organism-based; parameters: dose 0.78 mg/kg; conditions: in vivo
Mus musculus [12] = experiment: Toxicity in mouse P388 cells allografted BDF1 mouse assessed as body weight difference at 12.5 mg/kg administered 24 hrs post challenge relative to control; assay type: organism-based; parameters: dose 12.5 mg/kg; conditions: in vivo
Mus musculus [13] = experiment: Toxicity in mouse P388 cells allografted BDF1 mouse assessed as body weight difference at 1.56 mg/kg administered 24 hrs post challenge relative to control; assay type: organism-based; parameters: dose 1.56 mg/kg; conditions: in vivo
Mus musculus [14] = experiment: Toxicity in mouse P388 cells allografted BDF1 mouse assessed as body weight difference at 25 mg/kg administered 24 hrs post challenge relative to control; assay type: organism-based; parameters: dose 25 mg/kg; conditions: in vivo
B16 [15] = experiment: Antitumor activity against mouse B16 cells allografted in BDF1 mouse assessed as increase in survival time at 16 mg/kg administered 24 hrs post challenge relative to control; assay type: functional
P388 [16] = experiment: Antitumor activity against mouse P388 cells allografted in BDF1 mouse assessed as increase in survival time at 1.56 mg/kg administered 24 hrs post challenge relative to control; assay type: functional
B16 [17] = experiment: Antitumor activity against mouse B16 cells allografted in BDF1 mouse assessed as increase in survival time at 4 mg/kg administered 24 hrs post challenge relative to control; assay type: functional
P388 [18] = experiment: Antitumor activity against mouse P388 cells allografted in BDF1 mouse assessed as increase in survival time at 6.25 mg/kg administered 24 hrs post challenge relative to control; assay type: functional
P388 [19] = experiment: Antitumor activity against mouse P388 cells allografted in BDF1 mouse assessed as mouse survival at 1.56 mg/kg administered 24 hrs post challenge relative to control; assay type: functional, organism-based; parameters: dose 1.56 mg/kg
P388 [20] = experiment: Antitumor activity against mouse P388 cells allografted in BDF1 mouse assessed as mouse survival at 25 mg/kg administered 24 hrs post challenge relative to control; assay type: functional, organism-based; parameters: dose 25 mg/kg
P388 [21] = experiment: Antitumor activity against mouse P388 cells allografted in BDF1 mouse assessed as increase in survival time at 12.5 mg/kg administered 24 hrs post challenge relative to control; assay type: functional
P388 [22] = experiment: Antitumor activity against mouse P388 cells allografted in BDF1 mouse assessed as mouse survival at 3.13 mg/kg administered 24 hrs post challenge relative to control; assay type: functional, organism-based; parameters: dose 3.13 mg/kg
P388 [23] = experiment: Antitumor activity against mouse P388 cells allografted in BDF1 mouse assessed as increase in survival time at 25 mg/kg administered 24 hrs post challenge relative to control; assay type: functional
P388 [24] = experiment: Antitumor activity against mouse P388 cells allografted in BDF1 mouse assessed as increase in survival time at 3.13 mg/kg administered 24 hrs post challenge relative to control; assay type: functional
B16 [25] = experiment: Antitumor activity against mouse B16 cells allografted in BDF1 mouse assessed as increase in survival time at 8 mg/kg administered 24 hrs post challenge relative to control; assay type: functional
Mus musculus [26] = experiment: Toxicity in mouse P388 cells allografted BDF1 mouse assessed as body weight difference at 3.13 mg/kg administered 24 hrs post challenge relative to control; assay type: organism-based; parameters: dose 3.13 mg/kg; conditions: in vivo
P388 [27] = experiment: Antitumor activity against mouse P388 cells allografted in BDF1 mouse assessed as increase in survival time at 0.78 mg/kg administered 24 hrs post challenge relative to control; assay type: functional
P388 [28] = experiment: Antitumor activity against mouse P388 cells allografted in BDF1 mouse assessed as mouse survival at 0.78 mg/kg administered 24 hrs post challenge relative to control; assay type: functional, organism-based; parameters: dose 0.78 mg/kg
P388 [29] = experiment: Antitumor activity against mouse P388 cells allografted in BDF1 mouse assessed as mouse survival at 12.5 mg/kg administered 24 hrs post challenge relative to control; assay type: functional, organism-based; parameters: dose 12.5 mg/kg
Mus musculus [30] = experiment: Toxicity in mouse P388 cells allografted BDF1 mouse assessed as body weight difference at 6.25 mg/kg administered 24 hrs post challenge relative to control; assay type: organism-based; parameters: dose 6.25 mg/kg; conditions: in vivo
P388 [31] = experiment: Antitumor activity against mouse P388 cells allografted in BDF1 mouse assessed as mouse survival at 50 mg/kg administered 24 hrs post challenge relative to control; assay type: functional, organism-based; parameters: dose 50 mg/kg
Mus musculus [32] = experiment: Toxicity in mouse P388 cells allografted BDF1 mouse assessed as body weight difference at 50 mg/kg administered 24 hrs post challenge relative to control; assay type: organism-based; parameters: dose 50 mg/kg; conditions: in vivo
P388 [33] = experiment: Antitumor activity against mouse P388 cells allografted in BDF1 mouse assessed as increase in survival time at 50 mg/kg administered 24 hrs post challenge relative to control; assay type: functional

Compound	T/C (P388 [1])	Activity (Mus musculus [2])	Activity (P388 [7])	Activity (P388 [10])	Activity (Mus musculus [12])	Activity (Mus musculus [14])	T/C (P388 [18])	Activity (P388 [20])	T/C (P388 [21])	T/C (P388 [23])	Activity (P388 [29])	Activity (Mus musculus [30])	Activity (P388 [31])	Activity (Mus musculus [32])	T/C (P388 [33])	other results
COc1ccc(CCNc2ccc(NCCc3ccc(OC)c(OC)c3)c3c2C(=O)c2ccccc2C3=O)cc1OC	86%	-1.7 g	Active													Activity (Mus musculus [3]): -3.2 g; Activity (P388 [4]): Active; Activity (P388 [5]): Active; Activity (Mus musculus [6]): -2.9 g; T/C (P388 [8]): 91%; T/C (P388 [9]): 101%
NCCNc1ccc(NCCN)c2c1C(=O)c1ccccc1C2=O				Active	-1.1 g	-2.6 g	159%	Active	174%	215%	Active	-1.1 g				Activity (Mus musculus [11]): -1.3 g; Activity (Mus musculus [13]): -1.6 g; T/C (B16 [15]): 281%; T/C (P388 [16]): 137%; T/C (B16 [17]): 280%; Activity (P388 [19]): Active; Activity (P388 [22]): Active; T/C (P388 [24]): 107%; T/C (B16 [25]): 280%; Activity (Mus musculus [26]): -0.9 g; T/C (P388 [27]): 150%; Activity (P388 [28]): Active
O=C1c2ccccc2C(=O)c2c(NCCCNCCO)ccc(NCCCNCCO)c21	98%	-2.6 g		Active	-1.4 g	-2.1 g	101%		117%	130%	Active	0.9 g	Active	-2.1 g	133%	
CNCCNc1ccc(NCCNC)c2c1C(=O)c1ccccc1C2=O					-1.9 g				200%		Active					
CCCNCCNc1ccc(NCCNCCC)c2c1C(=O)c1ccccc1C2=O	124%	-2.6 g	Active			-0.8 g		Active		118%			Active	-1.7 g	125%	
O=C1c2ccccc2C(=O)c2c(NCCSCCO)ccc(NCCSCCO)c21	94%	-2.2 g	Active			-1.6 g		Active		95%			Active	-1.4 g	86%	
